Results on 10 molecules are retold here after ChEMBL document CHEMBL1201862, “PubChem BioAssay data set” (2004).

Among the test systems are SN12C; Hs-578T; NCI-H23; UACC-62; CCRF-CEM; RXF 393; MDA-MB-435; HOP-92; UACC-257; SK-MEL-2; IGROV-1; OVCAR-8; COLO 205; HCT-15; KM12; MDA-MB-231; OVCAR-5; SF-268; M14; A549.
Common to all, as to assay: NCI anticancer screen, dose series, 48 h

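In this assay, cells in 96-well plates receive the compound at five concentrations for 48 hours. Endpoints are linearly interpolated between the surrounding concentrations. GI50 = concentration required for 50% inhibition of growth.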 Active and inactive are the calls of the source. No stated cut-off is given here; in the data, active = GI50 up to about 1.1 µM and inactive = higher. A value given as a limit tells only on which side of the number the result lay.

As for `c1ccc(CN2CCc3[nH]c4ccccc4c3C2)cc1`, the GI50 in the assay on SN12C is 34.3 µM (inactive); with Hs-578T, 32.5 µM (inactive); in the assay on NCI-H23, 59.2 µM (inactive); in the assay with UACC-62, 26.1 µM (inactive); with CCRF-CEM, 24.3 µM (inactive); with RXF 393 it was 34.7 µM (inactive). For the same molecule, the GI50 in the assay with MDA-MB-435 was 22.9 µM (inactive); in the assay on HOP-92 it was 18 µM (inactive); with UACC-257 it was 16 µM (inactive); in the assay on SK-MEL-2, 19.9 µM (inactive); in the assay on IGROV-1, 38.7 µM (inactive); with OVCAR-8, 46.1 µM (inactive). The GI50 in the assay with COLO 205 was 16.9 µM (inactive); in the assay with HCT-15 it was 25.9 µM; with KM12, 22.5 µM (inactive); in the assay on MDA-MB-231 it was 26.7 µM (inactive); in the assay on OVCAR-5, 39.9 µM (inactive); in the assay on SF-268, 43.8 µM (inactive). The GI50 was 17.3 µM (inactive) in the assay with M14 and 67.8 µM (inactive) in the assay on A549.
On to `N#Cc1c(SCc2ccccc2)nc(-c2ccccc2)[nH]c1=S`, for which the GI50 was 32.5 µM (inactive) in the assay with SN12C; 32.1 µM (inactive) in the assay on Hs-578T; 18.2 µM (inactive) in the assay on NCI-H23; 21.7 µM (inactive) with UACC-62; 34.3 µM (inactive) with CCRF-CEM; 19.2 µM (inactive) with RXF 393. The GI50 in the assay with MDA-MB-435 was 24 µM (inactive); with HOP-92, 31.6 µM (inactive); in the assay on UACC-257 it was 35.2 µM (inactive); in the assay with SK-MEL-2, 16.7 µM (inactive); in the assay with IGROV-1 it was 29.9 µM (inactive); in the assay on OVCAR-8, 27.6 µM (inactive). Also, the GI50 is 17.1 µM (inactive) in the assay with COLO 205; 19.8 µM with HCT-15; 17.4 µM (inactive) with KM12; 37.4 µM (inactive) with MDA-MB-231; 25.8 µM (inactive) in the assay on OVCAR-5; 22 µM (inactive) in the assay with SF-268. The GI50 in the assay with M14 was 29.9 µM (inactive); in the assay on A549 it was 30.8 µM (inactive).
On to `CC1=C(C(=O)Nc2ccccc2)C(c2ccc(N(C)C)cc2)C(C(=O)Nc2ccccc2)=C(C)N1`, for which the GI50 in the assay with SN12C was 46.3 µM (inactive); in the assay on Hs-578T, > 100 µM (inactive); in the assay with NCI-H23, 24.9 µM (inactive); in the assay with UACC-62, 0.2 µM (active); with CCRF-CEM, 3.94 µM (inactive); in the assay with RXF 393, > 85.1 µM (inactive). For the same molecule, the GI50 is 0.804 µM (active) with MDA-MB-435; 65.9 µM (inactive) in the assay with HOP-92; 8.32 µM (inactive) in the assay with UACC-257; > 70.1 µM (inactive) in the assay with SK-MEL-2; 16.9 µM (inactive) with IGROV-1; 11.9 µM (inactive) with OVCAR-8. The GI50 with COLO 205 is 1.41 µM (inactive); in the assay on HCT-15, 0.493 µM; in the assay on KM12, 0.964 µM (active); with MDA-MB-231, 29.1 µM (inactive); with OVCAR-5, 18.6 µM (inactive); in the assay with SF-268, 9.31 µM (inactive). The GI50 with M14 was 1.5 µM (inactive); in the assay with A549 it was 3.31 µM (inactive).
On to `COc1ccc(C2Oc3ccc(Cl)cc3C=C2[N+](=O)[O-])cc1OC` (stereo not given), for which the GI50 in the assay on SN12C was 0.871 µM (active); in the assay on Hs-578T, 1.07 µM (active); with NCI-H23, 1.61 µM (inactive); in the assay with UACC-62 it was 1.5 µM (inactive); in the assay with CCRF-CEM, 0.0413 µM (active); in the assay with RXF 393 it was 1.59 µM (inactive). Further, the GI50 is 0.15 µM (active) in the assay on MDA-MB-435; 1.88 µM (inactive) in the assay on HOP-92; 1.41 µM (inactive) in the assay on UACC-257; 1.48 µM (inactive) in the assay on SK-MEL-2; 1.56 µM (inactive) in the assay on IGROV-1; 1.12 µM (active) in the assay on OVCAR-8. Further, the GI50 is 1.16 µM (inactive) in the assay with COLO 205; 1.47 µM in the assay with HCT-15; 1.48 µM (inactive) in the assay on KM12; 1.27 µM (inactive) with MDA-MB-231; 1.5 µM (inactive) in the assay with OVCAR-5; 0.617 µM (active) in the assay with SF-268. Further, the values for the GI50 in the assay with M14 and with A549 were 0.231 µM (active) and 1.83 µM (inactive), respectively.
Turning to `CN(C)CCNc1ccc([N+](=O)[O-])c2nc3ccccc3c(N)c12`, the GI50 is 0.783 µM (active) in the assay on SN12C; 3.96 µM (inactive) in the assay with Hs-578T; 0.889 µM (active) in the assay on NCI-H23; 1.15 µM (inactive) with UACC-62; 0.241 µM (active) with CCRF-CEM; 1.05 µM (active) in the assay on RXF 393. Besides, the GI50 in the assay on MDA-MB-435 was 0.615 µM (active); in the assay on HOP-92, 0.547 µM (active); with UACC-257 it was 2.18 µM (inactive); in the assay on SK-MEL-2, 1.99 µM (inactive); with IGROV-1 it was 0.456 µM (active); in the assay with OVCAR-8 it was 0.792 µM (active). Besides, the GI50 was 0.182 µM (active) with COLO 205; 0.444 µM in the assay on HCT-15; 0.381 µM (active) in the assay on KM12; 0.695 µM (active) with MDA-MB-231; > 10 µM (inactive) in the assay on OVCAR-5; 0.507 µM (active) in the assay on SF-268. Besides, the GI50 in the assay with M14 is 0.574 µM (active); with A549, 0.439 µM (active).
On to `Nc1nc(N)c(C2=CCN(Cc3ccccc3)CC2)c(=O)[nH]1`, for which the GI50 in the assay with SN12C, in the assay on Hs-578T, in the assay on NCI-H23, with UACC-62, with CCRF-CEM and with RXF 393 was > 100 µM (inactive) in each case. The GI50 in the assay with MDA-MB-435, in the assay on HOP-92, with UACC-257, in the assay with SK-MEL-2, in the assay on IGROV-1 and in the assay on OVCAR-8 was > 100 µM (inactive) throughout. The GI50 with COLO 205 is > 100 µM (inactive); in the assay with HCT-15, over 100 µM; in the assay with KM12 it was > 100 µM (inactive); in the assay with MDA-MB-231, > 100 µM (inactive); in the assay on OVCAR-5, > 100 µM (inactive); in the assay on SF-268 it was > 100 µM (inactive). Besides, the GI50 in the assay with M14 and with A549 was > 100 µM (inactive) each time.
Take `COc1cc(N(CCC#N)CCC#N)ccc1C(=N/NC(=O)c1cc(Br)ccc1O)/N=N/c1ccc(C)cc1`: the GI50 with SN12C is 17.3 µM (inactive); in the assay on Hs-578T, 40.2 µM (inactive); in the assay with NCI-H23, 17 µM (inactive); in the assay with UACC-62, 18.5 µM (inactive); in the assay with CCRF-CEM it was 4.5 µM (inactive); with RXF 393, 19.3 µM (inactive). Also, the GI50 in the assay on MDA-MB-435 is 44.9 µM (inactive); in the assay on HOP-92, 20.8 µM (inactive); in the assay with UACC-257 it was 25.1 µM (inactive); in the assay on SK-MEL-2, 23.7 µM (inactive); with IGROV-1, 4.32 µM (inactive); in the assay with OVCAR-8 it was 22.8 µM (inactive). In addition, the GI50 in the assay with COLO 205 is 15.7 µM (inactive); with HCT-15, 12.2 µM; with KM12 it was 17 µM (inactive); with MDA-MB-231 it was 15.5 µM (inactive); in the assay on OVCAR-5 it was 61.4 µM (inactive); with SF-268, 15.4 µM (inactive). In addition, the GI50 was 28.3 µM (inactive) in the assay on M14 and 28.8 µM (inactive) in the assay on A549.
For `CCC(=O)O[C@H]1CC[C@H]2[C@@H]3CCC4=CC(=O)C=C[C@]4(O)[C@H]3CC[C@]12C`, the GI50 was 41.9 µM (inactive) in the assay with SN12C; 39.5 µM (inactive) in the assay with Hs-578T; 22 µM (inactive) in the assay with NCI-H23; 15.4 µM (inactive) in the assay on UACC-62; 4.09 µM (inactive) with CCRF-CEM; 24.5 µM (inactive) in the assay with RXF 393. The GI50 in the assay with MDA-MB-435 is 3.11 µM (inactive); with HOP-92, 31.2 µM (inactive); in the assay with UACC-257, 3.72 µM (inactive); in the assay on SK-MEL-2, 15.9 µM (inactive); in the assay on IGROV-1, 22.4 µM (inactive); in the assay with OVCAR-8, 23 µM (inactive). Moreover, the GI50 is 37.8 µM (inactive) with COLO 205; 15 µM in the assay on HCT-15; 18.5 µM (inactive) in the assay with KM12; 22.7 µM (inactive) in the assay on MDA-MB-231; 87.5 µM (inactive) in the assay with OVCAR-5; 31 µM (inactive) with SF-268. Besides, the GI50 was 22.5 µM (inactive) with M14 and 16.1 µM (inactive) with A549.
Take `NCCc1ccc(S(=O)(=O)O)cc1[N+](=O)[O-]`: the GI50 in the assay on SN12C, in the assay with Hs-578T, in the assay on NCI-H23, in the assay with UACC-62, with CCRF-CEM and with RXF 393 was > 100 µM (inactive) in each case. The GI50 with MDA-MB-435, in the assay on HOP-92, in the assay on UACC-257, in the assay with SK-MEL-2, in the assay with IGROV-1 and with OVCAR-8 was > 100 µM (inactive) throughout. The GI50 in the assay on COLO 205 was > 100 µM (inactive); in the assay with HCT-15, over 100 µM; in the assay on KM12, > 100 µM (inactive); in the assay with MDA-MB-231, > 100 µM (inactive); in the assay on OVCAR-5, > 100 µM (inactive); with SF-268, > 100 µM (inactive). Besides, the GI50 in the assay on M14 and in the assay with A549 was > 100 µM (inactive) each time.
As for `COc1cc2cc[n+](C)c(Cc3ccc(Oc4cc(Cc5c6cc(OC)c(OC)cc6cc[n+]5C)ccc4OC)cc3)c2cc1OC`, the GI50 in the assay with SN12C, in the assay on Hs-578T, with NCI-H23, in the assay with UACC-62, in the assay on CCRF-CEM and in the assay on RXF 393 was > 100 µM (inactive) throughout. Moreover, the GI50 with MDA-MB-435, in the assay with HOP-92, in the assay with UACC-257, in the assay on SK-MEL-2, in the assay on IGROV-1 and in the assay on OVCAR-8 was > 100 µM (inactive) in each case. Moreover, the GI50 was > 100 µM (inactive) with COLO 205; over 100 µM with HCT-15; > 100 µM (inactive) in the assay with KM12; > 100 µM (inactive) in the assay on MDA-MB-231; > 100 µM (inactive) with OVCAR-5; > 100 µM (inactive) with SF-268. Also, the GI50 in the assay with M14 and in the assay with A549 was > 100 µM (inactive) in each case.
